Patent US20210395262A1, “INHIBITORS OF HUMAN IMMUNODEFICIENCY VIRUS REPLICATION” (ViiV HEALTHCARE UK (NO.5) LIMITED, priority 2018, published 2021)

Columns and labels:
recombinant NL4-3 virus = assay: HIV cell culture assay (antiviral activity, luciferase readout in MT-2 cells); type: cell-based; conditions: Human immunodeficiency virus 1, NL43, MT2
Procedure, shortened: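 MT-2 cells infected for 4-5 days with NL4-3 reference virus carrying Renilla luciferase in place of part of nef, in presence of serial compound dilutions. Luciferase activity read with live-cell substrate. EC50 derived from median effect equation, slope parameter m.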

[1] = Compound cytotoxicity, XTT-based colorimetric assay; type: cell-based; conditions: human; uninfected MT2 cells, day 4, XTT; read-out: CC50
Procedure, shortened: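 Run under the antiviral-assay protocol but without virus. Viability was read on day 4 and CC50 values were derived from the readout.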

## C[C@@H]1CN(c2ccc3c(=O)n(-c4ccc(Cl)c5c(NS(=O)(=O)C6CC6)nn(CC(F)(F)F)c45)c([C@H](Cc4cc(F)cc(F)c4)NC(=O)Cn4nc(C(F)F)c5c4C(F)(F)[C@@H]4C[C@H]54)nc3c2)C[C@H](C)O1 (atropisomer, axis not shown; (P)) [Example 62, N—((S)-1-((3P)-3-(4-chloro-3-(cyclopropanesulfonamido)-1-(2,2,2-trifluoroethyl)-1H-indazol-7-yl)-7-((2S,6R)-2,6-dimethylmorpholino)-4-oxo-3,4-dihydroquinazolin-2-yl)-2-(3,5-difluorophenyl)ethyl)-2-((3bS,4aR)-3-(difluoromethyl)-5,5-difluoro-3b,4,4a,5-tetrahydro-1H-cyclopropa[3,4]cyclopenta[1,2-c]pyrazol-1-yl)acetamide]
Recombinant NL4-3 virus
  EC50: 0.067 nM
[1]
  CC50 at 4 days: > 500 nM

## C[C@@H]1CN(c2ccc3c(=O)n(-c4ccc(Cl)c5c(NS(C)(=O)=O)nn(CC(F)(F)F)c45)c([C@H](Cc4cc(F)cc(F)c4)NC(=O)Cn4nc(C5CC5)cc4C(F)F)nc3c2)C[C@H](C)O1 (atropisomer, axis not shown; (P)) [Example 60, N—((S)-1-((3P)-3-(4-chloro-3-(methylsulfonamido)-1-(2,2,2-trifluoroethyl)-1H-indazol-7-yl)-7-((2S,6R)-2,6-dimethylmorpholino)-4-oxo-3,4-dihydroquinazolin-2-yl)-2-(3,5-difluorophenyl)ethyl)-2-(3-cyclopropyl-5-(difluoromethyl)-1H-pyrazol-1-yl)acetamide]
Recombinant NL4-3 virus
  EC50: 0.36 nM
[1]
  CC50 at 4 days: > 500 nM

## Cn1nc(NS(C)(=O)=O)c2c(Cl)ccc(-n3c([C@H](Cc4cc(F)cc(F)c4)NC(=O)Cn4nc(C(F)F)c5c4C(F)(F)[C@@H]4C[C@H]54)nc4cc(N5CCC5)ccc4c3=O)c21 (atropisomer, axis not shown; (P)) [Example 18, N—((S)-1-(7-(azetidin-1-yl)-(3P)-3-(4-chloro-1-methyl-3-(methylsulfonamido)-1H-indazol-7-yl)-4-oxo-3,4-dihydroquinazolin-2-yl)-2-(3,5-difluorophenyl)ethyl)-2-((3bS,4aR)-3-(difluoromethyl)-5,5-difluoro-3b,4,4a,5-tetrahydro-1H-cyclopropa[3,4]cyclopenta[1,2-c]pyrazol-1-yl)acetamide]
Recombinant NL4-3 virus
  EC50: 0.066 nM
[1]
  CC50 at 4 days: > 1000 nM

## Cn1nc(NS(C)(=O)=O)c2c(Cl)ccc(-n3c([C@H](Cc4cc(F)cc(F)c4)NC(=O)Cn4nc(C(F)F)c5c4C(F)(F)[C@@H]4C[C@H]54)nc4cc(N5CCOC(C)(C)C5)ccc4c3=O)c21 (atropisomer, axis not shown; (P)) [Example 4, N—((S)-1-((3P)-3-(4-chloro-1-methyl-3-(methylsulfonamido)-1H-indazol-7-yl)-7-(2,2-dimethylmorpholino)-4-oxo-3,4-dihydroquinazolin-2-yl)-2-(3,5-difluorophenyl)ethyl)-2-((3bS,4aR)-3-(difluoromethyl)-5,5-difluoro-3b,4,4a,5-tetrahydro-1H-cyclopropa[3,4]cyclopenta[1,2-c]pyrazol-1-yl)acetamide]
Recombinant NL4-3 virus
  EC50: 0.063 nM
[1]
  CC50 at 4 days: > 500 nM

## CO[C@@H]1CCN(c2ccc3c(=O)n(-c4ccc(Cl)c5c(NS(C)(=O)=O)nn(C)c45)c([C@H](Cc4cc(F)cc(F)c4)NC(=O)Cn4nc(C(F)F)c5c4C(F)(F)[C@@H]4C[C@H]54)nc3c2)C1 (atropisomer, axis not shown; (P)) [Example 5, N—((S)-1-((3P)-3-(4-chloro-1-methyl-3-(methylsulfonamido)-1H-indazol-7-yl)-7-((R)-3-methoxypyrrolidin-1-yl)-4-oxo-3,4-dihydroquinazolin-2-yl)-2-(3,5-difluorophenyl)ethyl)-2-((3bS,4aR)-3-(difluoromethyl)-5,5-difluoro-3b,4,4a,5-tetrahydro-1H-cyclopropa[3,4]cyclopenta[1,2-c]pyrazol-1-yl)acetamide]
Recombinant NL4-3 virus
  EC50: 0.05 nM
[1]
  CC50 at 4 days: > 500 nM

## O=C(Cn1nc(C(F)F)cc1C(F)F)N[C@@H](Cc1cc(F)cc(F)c1)c1nc2cc(N3CCCCC3)ccc2c(=O)n1-c1ccc(Cl)c2c(NS(=O)(=O)C3CC3)nn(CC(F)F)c12 (atropisomer, axis not shown; (P)) [Example 37, (S)-2-(3,5-bis(difluoromethyl)-1H-pyrazol-1-yl)-N-(1-((3P)-3-(4-chloro-3-(cyclopropanesulfonamido)-1-(2,2-difluoroethyl)-1H-indazol-7-yl)-4-oxo-7-(piperidin-1-yl)-3,4-dihydroquinazolin-2-yl)-2-(3,5-difluorophenyl)ethyl)acetamide]
Recombinant NL4-3 virus
  EC50: 2.34 nM
[1]
  CC50 at 4 days: > 1000 nM

## C[C@@H]1CN(c2ccc3c(=O)n(-c4ccc(Cl)c5c(NS(C)(=O)=O)nn(CC(F)F)c45)c([C@H](Cc4cc(F)cc(F)c4)NC(=O)Cn4nc(C5CC5)c5ccccc54)nc3c2)C[C@H](C)O1 (atropisomer, axis not shown; (P)) [Example 44, N—((S)-1-((3P)-3-(4-chloro-1-(2,2-difluoroethyl)-3-(methylsulfonamido)-1H-indazol-7-yl)-7-((2S,6R)-2,6-dimethylmorpholino)-4-oxo-3,4-dihydroquinazolin-2-yl)-2-(3,5-difluorophenyl)ethyl)-2-(3-cyclopropyl-1H-indazol-1-yl)acetamide]
Recombinant NL4-3 virus
  EC50: 0.59 nM
[1]
  CC50 at 4 days: > 500 nM

## Cn1nc(NS(C)(=O)=O)c2c(Cl)ccc(-n3c([C@H](Cc4cc(F)cc(F)c4)NC(=O)Cn4nc(C(F)F)c5c4C(F)(F)[C@@H]4C[C@H]54)nc4cc(N5CCC(O)CC5)ccc4c3=O)c21 (atropisomer, axis not shown; (P)) [Example 24, N—((S)-1-((3P)-3-(4-chloro-1-methyl-3-(methylsulfonamido)-1H-indazol-7-yl)-7-(4-hydroxypiperidin-1-yl)-4-oxo-3,4-dihydroquinazolin-2-yl)-2-(3,5-difluorophenyl)ethyl)-2-((3bS,4aR)-3-(difluoromethyl)-5,5-difluoro-3b,4,4a,5-tetrahydro-1H-cyclopropa[3,4]cyclopenta[1,2-c]pyrazol-1-yl)acetamide]
Recombinant NL4-3 virus
  EC50: 0.118 nM
[1]
  CC50 at 4 days: > 500 nM

## C[C@@H]1CN(c2ccc3c(=O)n(-c4ccc(Cl)c5c(NS(=O)(=O)C6CC6)nn(CC(F)F)c45)c([C@H](Cc4cc(F)cc(F)c4)NC(=O)Cn4nc(C(F)F)c5c4C(F)(F)[C@@H]4C[C@H]54)nc3c2)C[C@H](C)O1 (atropisomer, axis not shown; (P)) [Example 10, N—((S)-1-((3P)-3-(4-chloro-3-(cyclopropanesulfonamido)-1-(2,2-difluoroethyl)-1H-indazol-7-yl)-7-((2S,6R)-2,6-dimethylmorpholino)-4-oxo-3,4-dihydroquinazolin-2-yl)-2-(3,5-difluorophenyl)ethyl)-2-((3bS,4aR)-3-(difluoromethyl)-5,5-difluoro-3b,4,4a,5-tetrahydro-1H-cyclopropa[3,4]cyclopenta[1,2-c]pyrazol-1-yl)acetamide]
Recombinant NL4-3 virus
  EC50: 0.072 nM
[1]
  CC50 at 4 days: > 500 nM

## C[C@@H]1CN(c2ccc3c(=O)n(-c4ccc(Cl)c5c(NS(C)(=O)=O)nn(CC(F)F)c45)c([C@H](Cc4cc(F)cc(F)c4)NC(=O)Cn4ccc(C(C)(C)C)n4)nc3c2)C[C@H](C)O1 (atropisomer, axis not shown; (P)) [Example 49, 2-(3-(tert-butyl)-1H-pyrazol-1-yl)-N—((S)-1-((3P)-3-(4-chloro-1-(2,2-difluoroethyl)-3-(methylsulfonamido)-1H-indazol-7-yl)-7-((2S,6R)-2,6-dimethylmorpholino)-4-oxo-3,4-dihydroquinazolin-2-yl)-2-(3,5-difluorophenyl)ethyl)acetamide]
Recombinant NL4-3 virus
  EC50: 2.7 nM
[1]
  CC50 at 4 days: > 500 nM

## O=C(Cn1nc(C(F)F)c2c1C(F)(F)[C@@H]1C[C@H]21)N[C@@H](Cc1cc(F)cc(F)c1)c1nc2cc(N3CCOCC3)ccc2c(=O)n1-c1ccc(Cl)c2c(NS(=O)(=O)C3CC3)nn(CC(F)F)c12 (atropisomer, axis not shown; (P)) [Example 9, N—((S)-1-((3P)-3-(4-chloro-3-(cyclopropanesulfonamido)-1-(2,2-difluoroethyl)-1H-indazol-7-yl)-7-morpholino-4-oxo-3,4-dihydroquinazolin-2-yl)-2-(3,5-difluorophenyl)ethyl)-2-((3bS,4aR)-3-(difluoromethyl)-5,5-difluoro-3b,4,4a,5-tetrahydro-1H-cyclopropa[3,4]cyclopenta[1,2-c]pyrazol-1-yl)acetamide]
Recombinant NL4-3 virus
  EC50: 0.086 nM
[1]
  CC50 at 4 days: > 500 nM

## C[C@@H]1CN(c2ccc3c(=O)n(-c4ccc(Cl)c5c(NS(C)(=O)=O)nn(C)c45)c([C@H](Cc4cc(F)cc(F)c4)NC(=O)Cn4nc(C(F)F)c5c4C(F)(F)[C@@H]4C[C@H]54)nc3c2)C[C@H](C)O1 (atropisomer, axis not shown; (P)) [Example 15, N—((S)-1-((3P)-3-(4-chloro-1-methyl-3-(methylsulfonamido)-1H-indazol-7-yl)-7-((2S,6R)-2,6-dimethylmorpholino)-4-oxo-3,4-dihydroquinazolin-2-yl)-2-(3,5-difluorophenyl)ethyl)-2-((3bS,4aR)-3-(difluoromethyl)-5,5-difluoro-3b,4,4a,5-tetrahydro-1H-cyclopropa[3,4]cyclopenta[1,2-c]pyrazol-1-yl)acetamide]
Recombinant NL4-3 virus
  EC50: 0.035 nM
[1]
  CC50 at 4 days: > 10000 nM

## C[C@@H]1CN(c2ccc3c(=O)n(-c4ccc(Cl)c5c(NS(C)(=O)=O)nn(C)c45)c([C@H](Cc4cc(F)cc(F)c4)NC(=O)Cn4nc(C(F)(F)F)c5c4C(F)(F)[C@@H]4C[C@H]54)nc3c2)C[C@H](C)O1 (atropisomer, axis not shown; (P)) [Example 54, N—((S)-1-((3P)-3-(4-chloro-1-methyl-3-(methylsulfonamido)-1H-indazol-7-yl)-7-((2S,6R)-2,6-dimethylmorpholino)-4-oxo-3,4-dihydroquinazolin-2-yl)-2-(3,5-difluorophenyl)ethyl)-2-((3bS,4aR)-5,5-difluoro-3-(trifluoromethyl)-3b,4,4a,5-tetrahydro-1H-cyclopropa[3,4]cyclopenta[1,2-c]pyrazol-1-yl)acetamide]
Recombinant NL4-3 virus
  EC50: 0.073 nM
[1]
  CC50 at 4 days: > 500 nM
